Reference: ChEMBL document CHEMBL3774317, “Design and synthesis of novel tamoxifen analogues that avoid CYP2D6 metabolism” (Eur J Med Chem, 2016)

Key:
Type in all cases: functional
[1] = Cytotoxicity against human IGROV1 cells assessed as cell growth at 10^-5 M after 48 hrs by SRB assay; conditions: IGROV-1, 48 h, read-out: Activity
[2] = tested on: MDA-MB-468; assay: Cytotoxicity against human MDA-MB-468 cells assessed as cell growth at 10^-5 M after 48 hrs by SRB assay; conditions: MDA-MB-468, 48 h, read-out: Activity
[3] = tested on: NCI-H226; assay: Cytotoxicity against human NCI-H226 cells assessed as cell growth at 10^-5 M after 48 hrs by SRB assay; conditions: NCI-H226, 48 h, read-out: Activity
[4] = tested on: MCF7; assay: Cytotoxicity against human MCF7 cells assessed as cell growth at 10^-6 M after 48 hrs by SRB assay; conditions: MCF7, 48 h, read-out: Activity
[5] = tested on: K562; assay: Cytotoxicity against human K562 cells assessed as cell growth at 10^-5 M after 48 hrs by SRB assay; conditions: K562, 48 h, read-out: Activity
[6] = tested on: SR; assay: Cytotoxicity against human SR cells assessed as cell growth at 10^-4 M after 48 hrs by SRB assay; conditions: read-out: Activity
[7] = Cytotoxicity against human DU145 cells assessed as cell growth at 10^-4 M after 48 hrs by SRB assay; conditions: DU-145, 48 h, read-out: Activity
[8] = Cytotoxicity against human PC3 cells assessed as cell growth at 10^-6 M after 48 hrs by SRB assay; conditions: PC-3, 48 h, read-out: Activity
[9] = Cytotoxicity against human HL-60(TB) cells assessed as cell growth at 10^-8 M after 48 hrs by SRB assay; conditions: HL-60, 48 h, read-out: Activity
[10] = Cytotoxicity against human TK10 cells assessed as cell growth at 10^-6 M after 48 hrs by SRB assay; conditions: TK-10, 48 h, read-out: Activity
[11] = Cytotoxicity against human HCT116 cells assessed as cell growth at 10^-7 M after 48 hrs by SRB assay; conditions: HCT-116, 48 h, read-out: Activity
[12] = tested on: Malme-3M; assay: Cytotoxicity against human MALME-3M cells assessed as cell growth at 10^-5 M after 48 hrs by SRB assay; conditions: read-out: Activity
[13] = Cytotoxicity against human OVCAR3 cells assessed as cell growth at 10^-6 M after 48 hrs by SRB assay; conditions: OVCAR-3, 48 h, read-out: Activity
[14] = tested on: EKVX; assay: Cytotoxicity against human EKVX cells assessed as cell growth at 10^-6 M after 48 hrs by SRB assay; conditions: read-out: Activity
[15] = Cytotoxicity against human Caki1 cells assessed as cell growth at 10^-6 M after 48 hrs by SRB assay; conditions: CAKI-1, 48 h, read-out: Activity
[16] = tested on: CCRF-CEM; assay: Cytotoxicity against human CCRF-CEM cells assessed as cell growth at 10^-7 M after 48 hrs by SRB assay; conditions: read-out: Activity
[17] = Cytotoxicity against human MOLT4 cells assessed as cell growth at 10^-4 M after 48 hrs by SRB assay; conditions: MOLT-4, 48 h, read-out: Activity
[18] = Cytotoxicity against human UO31 cells assessed as cell growth at 10^-5 M after 48 hrs by SRB assay; conditions: UO-31, 48 h, read-out: Activity
[19] = tested on: U-251; assay: Cytotoxicity against human U251 cells assessed as cell growth at 10^-4 M after 48 hrs by SRB assay; conditions: U-251, 48 h, read-out: Activity
[20] = tested on: NCI-H460; assay: Cytotoxicity against human NCI-H460 cells assessed as cell growth at 10^-5 M after 48 hrs by SRB assay; conditions: NCI-H460, 48 h, read-out: Activity
[21] = Cytotoxicity against human HCT116 cells assessed as cell growth at 10^-6 M after 48 hrs by SRB assay; conditions: HCT-116, 48 h, read-out: Activity
[22] = tested on: SK-MEL-2; assay: Cytotoxicity against human SK-MEL-2 cells assessed as cell growth at 10^-8 M after 48 hrs by SRB assay; conditions: SK-MEL-2, 48 h, read-out: Activity
[23] = tested on: MCF7; assay: Cytotoxicity against human MCF7 cells assessed as cell growth at 0.5 uM after 48 hrs by SRB assay; conditions: MCF7, 48 h, read-out: Activity
[24] = tested on: SK-MEL-2; assay: Cytotoxicity against human SK-MEL-2 cells assessed as cell growth at 0.5 uM after 48 hrs by SRB assay; conditions: SK-MEL-2, 48 h, read-out: Activity
[25] = Cytotoxicity against human HCC2998 cells assessed as cell growth at 5 nM after 48 hrs by SRB assay; conditions: HCC 2998, 48 h, read-out: Activity
[26] = tested on: SR; assay: Cytotoxicity against human SR cells assessed as cell growth at 5 uM after 48 hrs by SRB assay; conditions: read-out: Activity
[27] = Cytotoxicity against human HOP92 cells assessed as cell growth at 5 uM after 48 hrs by SRB assay; conditions: HOP-92, 48 h, read-out: Activity
[28] = Cytotoxicity against human HCT15 cells assessed as cell growth at 5 uM after 48 hrs by SRB assay; conditions: HCT-15, 48 h, read-out: Activity
[29] = Cytotoxicity against human TK10 cells assessed as cell growth at 5 nM after 48 hrs by SRB assay; conditions: TK-10, 48 h, read-out: Activity
[30] = Cytotoxicity against human SNB19 cells assessed as cell growth at 5 uM after 48 hrs by SRB assay; conditions: SNB-19, 48 h, read-out: Activity
[31] = tested on: MDA-MB-468; assay: Cytotoxicity against human MDA-MB-468 cells assessed as cell growth at 5 uM after 48 hrs by SRB assay; conditions: MDA-MB-468, 48 h, read-out: Activity
[32] = Cytotoxicity against human OVCAR5 cells assessed as cell growth at 0.5 uM after 48 hrs by SRB assay; conditions: OVCAR-5, 48 h, read-out: Activity
[33] = tested on: MDA-MB-435; assay: Cytotoxicity against human MDA-MB-435 cells assessed as cell growth at 50 uM after 48 hrs by SRB assay; conditions: MDA-MB-435, 48 h, read-out: Activity
[34] = tested on: Malme-3M; assay: Cytotoxicity against human MALME-3M cells assessed as cell growth at 50 uM after 48 hrs by SRB assay; conditions: read-out: Activity
[35] = Cytotoxicity against human RPMI8226 cells assessed as cell growth at 50 uM after 48 hrs by SRB assay; conditions: RPMI-8226, 48 h, read-out: Activity
[36] = Cytotoxicity against human Caki1 cells assessed as cell growth at 50 uM after 48 hrs by SRB assay; conditions: CAKI-1, 48 h, read-out: Activity
[37] = tested on: SN12C; assay: Cytotoxicity against human SN12C cells assessed as cell growth at 50 uM after 48 hrs by SRB assay; conditions: read-out: Activity
[38] = tested on: MDA-MB-231; assay: Cytotoxicity against human MDA-MB-231 cells assessed as cell growth at 5 uM after 48 hrs by SRB assay; conditions: MDA-MB-231, 48 h, read-out: Activity
[39] = Cytotoxicity against human SF268 cells assessed as cell growth at 5 uM after 48 hrs by SRB assay; conditions: SF-268, 48 h, read-out: Activity
[40] = tested on: 786-0; assay: Cytotoxicity against human 786-0 cells assessed as cell growth at 5 uM after 48 hrs by SRB assay; conditions: 786-0, 48 h, read-out: Activity
[41] = tested on: EKVX; assay: Cytotoxicity against human EKVX cells assessed as cell growth at 50 nM after 48 hrs by SRB assay; conditions: read-out: Activity

C/C(=C(/c1ccc(O)cc1)c1ccc(OCCN2CCCC2)cc1)c1ccccc1
growth at 10 µM [1]: 41% | growth at 10 µM [2]: -45% | growth at 10 µM [3]: 56% | growth at 1 µM [4]: 36% | growth at 10 µM [5]: -38% | growth at 100 µM [6]: -66% | growth at 100 µM [7]: -100% | growth at 1 µM [8]: 103% | growth at 0.01 µM [9]: 97% | growth at 1 µM [10]: 95% | growth at 0.1 µM [11]: 101% | growth at 10 µM [12]: -77% | growth at 1 µM [13]: 97% | growth at 1 µM [14]: 78% | growth at 1 µM [15]: 81% | growth at 0.1 µM [16]: 113% | growth at 100 µM [17]: -61% | growth at 10 µM [18]: -25% | growth at 100 µM [19]: -98% | growth at 10 µM [20]: -38% | growth at 1 µM [21]: 93% | growth at 0.01 µM [22]: 97%

CCCCCCCCCC(=O)Oc1ccc(/C(=C(/C)c2ccccc2)c2ccc(OCCN3CCCC3)cc2)cc1
growth at 0.5 µM [23]: 29% | growth at 0.5 µM [24]: 99% | growth at 0.005 µM [25]: 98% | growth at 5 µM [26]: 90% | growth at 5 µM [27]: 72% | growth at 5 µM [28]: 72% | growth at 0.005 µM [29]: 96% | growth at 5 µM [30]: 94% | growth at 5 µM [31]: 76% | growth at 0.5 µM [32]: 77% | growth at 50 µM [33]: -100% | growth at 50 µM [34]: -82% | growth at 50 µM [35]: -52% | growth at 50 µM [36]: -89% | growth at 50 µM [37]: -76% | growth at 5 µM [38]: 102% | growth at 5 µM [39]: 83% | growth at 5 µM [40]: 93% | growth at 0.05 µM [41]: 90%
